Experimental data from patent US9096624B2 (OSI Pharmaceuticals, LLC, priority 2009, dated 2015).

How the values were obtained:
[1] = molecular target: T1, FAK (Homo sapiens, UniProt Q05397); experiment: Cell-based capture ELISA for inhibition of FAK autophosphorylation [pY397] in MiaPaCa2 cells; settings: MIA-PaCa2 cells, + 50% mouse plasma (Table 3); read-out: Mean FAK Cell Mechanistic IC50 + 50% mP MIA-PaCa2
Protocol: Cell-Based Assays for Inhibition of FAK Autophosphorylation: MiaPaCa2 and U87MG
ELISA kit from Invitrogen (KHO0441).
Reagents Provided in Biosource FAK [pY397]
The cells were then suspended in cell assay medium.

[2] = molecular target: T1, FAK; experiment: biochemical

T1 sequence (Q05397 whole entry): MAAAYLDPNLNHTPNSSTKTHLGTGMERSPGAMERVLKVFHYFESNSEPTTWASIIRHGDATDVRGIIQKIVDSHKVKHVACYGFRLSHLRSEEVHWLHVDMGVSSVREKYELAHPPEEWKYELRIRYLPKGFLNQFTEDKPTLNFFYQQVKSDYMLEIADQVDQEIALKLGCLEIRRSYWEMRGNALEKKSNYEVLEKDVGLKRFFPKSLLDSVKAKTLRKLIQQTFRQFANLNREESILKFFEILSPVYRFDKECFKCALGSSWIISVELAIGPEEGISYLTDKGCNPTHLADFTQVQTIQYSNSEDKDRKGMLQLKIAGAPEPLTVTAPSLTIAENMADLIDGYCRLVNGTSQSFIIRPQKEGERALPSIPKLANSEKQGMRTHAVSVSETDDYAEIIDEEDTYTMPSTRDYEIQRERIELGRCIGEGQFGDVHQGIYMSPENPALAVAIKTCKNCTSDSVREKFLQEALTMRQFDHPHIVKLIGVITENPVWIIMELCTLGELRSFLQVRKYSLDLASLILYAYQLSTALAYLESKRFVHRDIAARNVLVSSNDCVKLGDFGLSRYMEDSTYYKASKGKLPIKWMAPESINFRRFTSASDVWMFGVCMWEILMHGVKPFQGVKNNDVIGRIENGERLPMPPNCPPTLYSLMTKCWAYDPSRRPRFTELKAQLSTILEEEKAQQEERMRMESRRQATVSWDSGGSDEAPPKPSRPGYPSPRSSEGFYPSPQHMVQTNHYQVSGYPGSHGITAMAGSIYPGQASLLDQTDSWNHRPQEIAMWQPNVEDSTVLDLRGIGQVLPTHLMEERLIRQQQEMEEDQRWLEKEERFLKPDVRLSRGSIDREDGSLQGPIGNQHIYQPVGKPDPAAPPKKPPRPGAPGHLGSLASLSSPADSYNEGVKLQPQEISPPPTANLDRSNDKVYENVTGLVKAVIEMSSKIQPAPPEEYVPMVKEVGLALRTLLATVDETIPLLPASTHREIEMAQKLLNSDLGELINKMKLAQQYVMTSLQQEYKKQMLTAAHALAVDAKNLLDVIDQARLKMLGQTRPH

| SMILES | IC50 [1] [nM] | IC50 [2] [nM] |
| --- | --- | --- |
| CNC(=O)c1ccccc1Nc1nc(Nc2ccc(CP(=O)(OCC(F)(F)F)OCC(F)(F)F)cc2OC)ncc1C(F)(F)F [Example 114, Bis(2,2,2-trifluoroethyl)(3-methoxy-4-{[4-{[2-(methylcarbamoyl)phenyl]amino}-5-(trifluoromethyl)pyrimidin-2-yl]amino}benzyl)phosphonate] | < 1000 | < 1000 |
| CCOP(=O)(OCC)C(OCC(F)(F)F)c1ccc(Nc2ncc(C(F)(F)F)c(Nc3ccccc3C(=O)NC)n2)cc1 (stereo not shown) [Example 115, Diethyl [(4-{[4-{[2-(methylcarbamoyl)phenyl]amino}-5-(trifluoromethyl)pyrimidin-2-yl]amino}phenyl)(2,2,2-trifluoroethoxy)methyl]phosphonate] | 1000 to 10000 | < 1000 |
| CCOP(=O)(Cc1ccc(Nc2ncc(C(F)(F)F)c(Nc3ccc(C(=O)N4CCCC4)c4c3C(=O)N(C)C4)n2)cc1)OCC [Example 116, Diethyl (4-{[4-{[2-methyl-3-oxo-7-(pyrrolidin-1-ylcarbonyl)-2,3-dihydro-1H-isoindol-4-yl]amino}-5-(trifluoromethyl)pyrimidin-2-yl]amino}benzyl)phosphonate] | 1000 to 10000 | < 1000 |
| CCOP(=O)(Cc1ccc(Nc2ncc(C(F)(F)F)c(Nc3ccc(C(=O)N4CCCC4)c4c3C(=O)N(C)C4)n2)c(OC)c1)OCC [Example 117, Diethyl (3-methoxy-4-{[4-{[2-methyl-3-oxo-7-(pyrrolidin-1-ylcarbonyl)-2,3-dihydro-1H-isoindol-4-yl]amino}-5-(trifluoromethyl)pyrimidin-2-yl]amino}benzyl)phosphonate] | < 1000 | < 1000 |
| CCOP(=O)(Cc1ccc(Nc2ncc(C(F)(F)F)c(Nc3ccc(C(=O)OC)c4c3C(=O)N(C)C4)n2)c(OC)c1)OCC [Example 119, Methyl 7-{[2-({4-[(diethoxyphosphoryl)methyl]-2-methoxyphenyl}amino)-5-(trifluoromethyl)pyrimidin-4-yl]amino}-2-methyl-1-oxo-2,3-dihydro-1H-isoindole-4-carboxylate] | < 1000 | < 1000 |
| COc1cc(CP(=O)(OCC(F)(F)F)OCC(F)(F)F)ccc1Nc1ncc(C(F)(F)F)c(Nc2cccc3c2C(=O)N(C)C3)n1 [Example 124, Bis(2,2,2-trifluoroethyl) [3-methoxy-4-({4-[(2-methyl-3-oxo-2,3-dihydro-1H-isoindol-4-yl)amino]-5-(trifluoromethyl)pyrimidin-2-yl}amino)benzyl]phosphonate] | < 1000 | < 1000 |
| CCOP(=O)(Cc1ccc(Nc2ncc(C(F)(F)F)c(Nc3ccc(-c4cnn(C)c4)cc3C(=O)NC)n2)cc1)OCC [Example 125, Diethyl (4-{[4-{[2-(methylcarbamoyl)-4-(1-methyl-1H-pyrazol-4-yl)phenyl]amino}-5-(trifluoromethyl)pyrimidin-2-yl]amino}benzyl)phosphonate] | < 1000 | < 1000 |
| CCOP(=O)(Cc1ccc(Nc2ncc(C(F)(F)F)c(Nc3ccc(C(=O)O)c4c3C(=O)N(C)C4)n2)cc1)OCC [Example 128, 7-{[2-({4-[(Diethoxyphosphoryl)methyl]phenyl}amino)-5-(trifluoromethyl)pyrimidin-4-yl]amino}-2-methyl-1-oxo-2,3-dihydro-1H-isoindole-4-carboxylic acid] | 1000 to 10000 | < 1000 |
| CCOP(=O)(Cc1ccc(Nc2ncc(C(F)(F)F)c(Nc3ccc(C(=O)O)c4c3C(=O)N(C)C4)n2)c(OC)c1)OCC [Example 129, 7-{[2-({4-[(Diethoxyphosphoryl)methyl]-2-methoxyphenyl}amino)-5-(trifluoromethyl)pyrimidin-4-yl]amino}-2-methyl-1-oxo-2,3-dihydro-1H-isoindole-4-carboxylic acid] | 1000 to 10000 | < 1000 |
| CCOP(=O)(Cc1ccc(Nc2ncc(C(F)(F)F)c(Nc3cccc4ccn(C)c(=O)c34)n2)cc1)OCC [Example 131, Diethyl [4-({4-[(2-methyl-1-oxo-1,2-dihydroisoquinolin-8-yl)amino]-5-(trifluoromethyl)pyrimidin-2-yl}amino)benzyl]phosphonate] | < 1000 | < 1000 |
| CCOP(=O)(Cc1ccc(Nc2ncc(C(F)(F)F)c(Nc3cccc4c3C(=O)N(C)CC4)n2)cc1)OCC [Example 132, Diethyl [4-({4-[(2-methyl-1-oxo-1,2,3,4-tetrahydroisoquinolin-8-yl)amino]-5-(trifluoromethyl)pyrimidin-2-yl}amino)benzyl]phosphonate] | < 1000 | < 1000 |
| CCOP(=O)(Cc1ccc(Nc2ncc(C(F)(F)F)c(Nc3ccc(-c4cnn([C@H]5CC[C@H](O)CC5)c4)cc3C(=O)NC)n2)cc1)OCC [Example 137, Diethyl (4-{[4-({4-[1-(trans-4-hydroxycyclohexyl)-1H-pyrazol-4-yl]-2-(methylcarbamoyl)phenyl}amino)-5-(trifluoromethyl)pyrimidin-2-yl]amino}benzyl)phosphonate] | 1000 to 10000 | < 1000 |
| CCOP(=O)(Cc1ccc(Nc2ncc(C(F)(F)F)c(Nc3ccc([C@H]4CC[C@@H](O)CC4)cc3C(=O)NC)n2)cc1)OCC [Example 138, Diethyl (4-{[4-{[4-(cis-4-hydroxycyclohexyl)-2-(methylcarbamoyl)phenyl]amino}-5-(trifluoromethyl)pyrimidin-2-yl]amino}benzyl)phosphonate] | < 1000 | < 1000 |
| CCOP(=O)(Cc1ccc(Nc2ncc(C(F)(F)F)c(Nc3ccc([C@H]4CC[C@@H](O)CC4)cc3C(=O)NC)n2)c(OC)c1)OCC [Example 140, Diethyl (4-{[4-{[4-(cis-4-hydroxycyclohexyl)-2-(methylcarbamoyl)phenyl]amino}-5-(trifluoromethyl)pyrimidin-2-yl]amino}-3-methoxybenzyl)phosphonate] | < 1000 | < 1000 |
| CCOP(=O)(Cc1ccc(Nc2ncc(C(F)(F)F)c(Nc3ccc(-c4ccn(CCO)n4)c4c3C(=O)N(C)C4)n2)cc1)OCC [Example 142, Diethyl (4-{[4-({7-[1-(2-hydroxyethyl)-1H-pyrazol-3-yl]-2-methyl-3-oxo-2,3-dihydro-1H-isoindol-4-yl}amino)-5-(trifluoromethyl)pyrimidin-2-yl]amino}benzyl)phosphonate] | < 1000 | < 1000 |
| CCOP(=O)(O)Cc1ccc(Nc2ncc(C(F)(F)F)c(Nc3ccccc3C(=O)NC)n2)c(OC)c1 [Example 143, Ethyl hydrogen (3-methoxy-4-{[4-{[2-(methylcarbamoyl)phenyl]amino}-5-(trifluoromethyl)pyrimidin-2-yl]amino}benzyl)phosphonate] | < 1000 | < 1000 |
| CCOP(=O)(Cc1ccc(Nc2ncc(C(F)(F)F)c(Nc3cccc4c3C(=O)N(C)C4(C)C)n2)c(OC)c1)OCC [Example 148, Diethyl [3-methoxy-4-({5-(trifluoromethyl)-4-[(1,1,2-trimethyl-3-oxo-2,3-dihydro-1H-isoindol-4-yl)amino]pyrimidin-2-yl}amino)benzyl]phosphonate] | 1000 to 10000 | < 1000 |
| CCOP(=O)(Cc1ccc(Nc2ncc(C(F)(F)F)c(Nc3cccc4c3C(=O)N(C)C4(C)C)n2)cc1)OCC [Example 149, Diethyl [4-({5-(trifluoromethyl)-4-[(1,1,2-trimethyl-3-oxo-2,3-dihydro-1H-isoindol-4-yl)amino]pyrimidin-2-yl}amino)benzyl]phosphonate] | 1000 to 10000 | < 1000 |
| CCOP(=O)(Cc1ccc(Nc2ncc(C(F)(F)F)c(Nc3ccc(C#N)cc3C(=O)NC)n2)c(OC)c1)OCC [Example 151, Diethyl (4-{[4-{[4-cyano-2-(methylcarbamoyl)phenyl]amino}-5-(trifluoromethyl)pyrimidin-2-yl]amino}-3-methoxybenzyl)phosphonate] | < 1000 | < 1000 |
| CCOP(=O)(Cc1ccc(Nc2ncc(C(F)(F)F)c(Nc3ccc(-c4cnn([C@H]5CC[C@H](O)CC5)c4)c4c3C(=O)N(C)C4)n2)cc1)OCC [Example 164, Diethyl (4-{[4-({7-[1-(trans-4-hydroxycyclohexyl)-1H-pyrazol-4-yl]-2-methyl-3-oxo-2,3-dihydro-1H-isoindol-4-yl}amino)-5-(trifluoromethyl)pyrimidin-2-yl]amino}benzyl) phosphonate] | < 1000 | < 1000 |
| CN1Cc2c(c(Nc3nc(Nc4ccc(CP(=O)(OCC(F)(F)F)OCC(F)(F)F)cc4)ncc3C(F)(F)F)ccc2[C@H]2CC[C@H](O)CC2)C1=O [Example 165, Bis(2,2,2-trifluoroethyl) (4-{[4-{[7-(trans-4-hydroxycyclohexyl)-2-methyl-3-oxo-2,3-dihydro-1H-isoindol-4-yl]amino}-5-(trifluoromethyl)pyrimidin-2-yl]amino}benzyl)phosphonate] | < 1000 | < 1000 |
| CCOP(=O)(Cc1ccc(Nc2ncc(C(F)(F)F)c(Nc3ccc([C@H]4CC[C@@H](OCC)CC4)c4c3C(=O)N(C)C4)n2)cc1)OCC [Example 166, Diethyl (4-{[4-{[7-(cis-4-ethoxycyclohexyl)-2-methyl-3-oxo-2,3-dihydro-1H-isoindol-4-yl]amino}-5-(trifluoromethyl)pyrimidin-2-yl]amino}benzyl)phosphonate] | < 1000 | < 1000 |
| CCOP(=O)(Cc1ccc(Nc2ncc(C(F)(F)F)c(Nc3ccc([C@H]4CC[C@@H](OCC)CC4)c4c3C(=O)N(C)C4)n2)c(OC)c1)OCC [Example 167, Diethyl (4-{[4-{[7-(cis-4-ethoxycyclohexyl)-2-methyl-3-oxo-2,3-dihydro-1H-isoindol-4-yl]amino}-5-(trifluoromethyl)pyrimidin-2-yl]amino}-3-methoxybenzyl) phosphonate] | < 1000 | < 1000 |
